{"source": "ChEMBL document CHEMBL5233206", "about": "“An overview on the synthesis of carbohydrate-based molecules with biological activity related to neurodegenerative diseases” (RSC Med Chem, 2021)", "key": {"[1]": {"target": "T1, Acetylcholinesterase (Electrophorus electricus, UniProt O42275)", "T1 sequence (O42275 whole entry)": "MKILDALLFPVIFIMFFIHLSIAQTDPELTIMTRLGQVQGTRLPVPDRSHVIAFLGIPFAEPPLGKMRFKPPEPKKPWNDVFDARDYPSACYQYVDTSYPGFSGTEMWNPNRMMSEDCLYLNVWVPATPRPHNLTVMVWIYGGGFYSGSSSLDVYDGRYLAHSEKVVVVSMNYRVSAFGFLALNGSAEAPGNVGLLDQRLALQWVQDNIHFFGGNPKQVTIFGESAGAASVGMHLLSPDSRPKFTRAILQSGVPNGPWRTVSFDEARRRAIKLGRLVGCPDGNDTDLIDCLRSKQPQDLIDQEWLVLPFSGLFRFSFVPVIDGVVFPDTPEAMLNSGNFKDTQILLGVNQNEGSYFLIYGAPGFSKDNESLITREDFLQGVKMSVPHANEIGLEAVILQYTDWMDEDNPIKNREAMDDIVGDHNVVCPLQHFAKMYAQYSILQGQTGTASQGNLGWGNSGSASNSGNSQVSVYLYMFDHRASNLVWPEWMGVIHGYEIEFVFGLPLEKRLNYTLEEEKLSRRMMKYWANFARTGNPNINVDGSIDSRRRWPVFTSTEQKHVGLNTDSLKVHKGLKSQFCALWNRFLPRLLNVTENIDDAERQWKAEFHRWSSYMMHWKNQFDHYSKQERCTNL", "assay": "Inhibition of electrical eel AChE by ellman's method"}, "[2]": {"assay": "Lipophilicity, logP of the compound", "type": "physicochemical", "conditions": "octanol/water"}, "[3]": {"target": "T2, Cholinesterase (Equus caballus, UniProt P81908)", "T2 sequence (P81908 whole entry)": "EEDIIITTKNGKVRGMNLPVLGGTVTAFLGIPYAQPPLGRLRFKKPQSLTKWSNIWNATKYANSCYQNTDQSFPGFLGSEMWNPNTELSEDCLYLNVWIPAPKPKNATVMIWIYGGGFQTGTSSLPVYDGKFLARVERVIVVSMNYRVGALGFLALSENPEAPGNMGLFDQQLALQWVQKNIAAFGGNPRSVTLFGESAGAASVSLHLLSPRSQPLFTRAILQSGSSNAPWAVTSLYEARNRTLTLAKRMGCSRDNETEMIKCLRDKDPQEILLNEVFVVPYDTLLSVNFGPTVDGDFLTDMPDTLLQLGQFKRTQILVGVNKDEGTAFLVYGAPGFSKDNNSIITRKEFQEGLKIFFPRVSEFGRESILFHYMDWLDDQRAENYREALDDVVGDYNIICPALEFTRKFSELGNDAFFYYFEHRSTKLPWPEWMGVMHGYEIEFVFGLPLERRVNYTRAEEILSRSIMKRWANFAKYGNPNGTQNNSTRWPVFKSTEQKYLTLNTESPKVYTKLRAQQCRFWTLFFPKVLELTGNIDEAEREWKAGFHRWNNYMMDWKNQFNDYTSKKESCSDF", "description": "Inhibition of equine serum BuChE by ellman's method"}, "[4]": {"target": "T3, Acetylcholinesterase (Homo sapiens, UniProt P22303)", "T3 sequence (P22303 whole entry)": "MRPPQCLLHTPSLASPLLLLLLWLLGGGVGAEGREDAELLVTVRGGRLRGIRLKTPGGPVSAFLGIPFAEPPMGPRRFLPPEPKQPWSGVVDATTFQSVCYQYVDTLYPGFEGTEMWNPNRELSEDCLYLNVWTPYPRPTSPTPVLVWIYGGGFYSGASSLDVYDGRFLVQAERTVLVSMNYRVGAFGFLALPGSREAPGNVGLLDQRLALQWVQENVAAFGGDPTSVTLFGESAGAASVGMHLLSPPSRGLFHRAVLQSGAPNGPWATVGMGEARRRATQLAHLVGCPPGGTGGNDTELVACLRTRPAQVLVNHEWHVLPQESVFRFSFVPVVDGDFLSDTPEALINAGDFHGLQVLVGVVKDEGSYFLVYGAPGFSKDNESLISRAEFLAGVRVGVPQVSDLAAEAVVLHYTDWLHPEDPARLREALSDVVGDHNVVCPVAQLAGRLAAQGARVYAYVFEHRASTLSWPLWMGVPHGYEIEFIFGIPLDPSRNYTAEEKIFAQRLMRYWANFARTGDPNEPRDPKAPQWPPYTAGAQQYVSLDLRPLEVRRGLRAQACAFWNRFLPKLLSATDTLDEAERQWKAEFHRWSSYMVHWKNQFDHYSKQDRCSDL", "description": "Binding affinity to AChE (unknown origin) assessed as inhibition constant incubated for 30 mins by ellman's method"}, "[5]": {"target": "T4, Cholinesterase (Homo sapiens, UniProt P06276)", "T4 sequence (P06276 whole entry)": "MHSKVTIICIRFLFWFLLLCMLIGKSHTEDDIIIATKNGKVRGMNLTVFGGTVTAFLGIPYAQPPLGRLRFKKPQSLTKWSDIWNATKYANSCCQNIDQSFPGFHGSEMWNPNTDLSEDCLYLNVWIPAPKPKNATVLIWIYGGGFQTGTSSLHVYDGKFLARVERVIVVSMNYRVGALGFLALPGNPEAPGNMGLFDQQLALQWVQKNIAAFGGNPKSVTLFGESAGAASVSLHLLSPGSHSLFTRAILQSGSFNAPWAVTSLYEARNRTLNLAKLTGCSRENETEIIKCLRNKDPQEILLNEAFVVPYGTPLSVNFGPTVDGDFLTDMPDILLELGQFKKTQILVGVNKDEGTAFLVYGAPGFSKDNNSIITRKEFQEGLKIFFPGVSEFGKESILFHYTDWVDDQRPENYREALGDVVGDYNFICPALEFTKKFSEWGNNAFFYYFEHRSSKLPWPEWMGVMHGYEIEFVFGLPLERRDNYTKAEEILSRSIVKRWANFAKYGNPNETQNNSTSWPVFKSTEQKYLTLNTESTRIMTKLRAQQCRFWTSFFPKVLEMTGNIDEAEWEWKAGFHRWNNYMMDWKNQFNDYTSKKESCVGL", "description": "Binding affinity to BuChE (unknown origin) assessed as inhibition constant incubated for 30 mins by ellman's method"}, "[6]": {"target": "T5, Acetylcholinesterase (Mus musculus, UniProt P21836)", "T5 sequence (P21836 whole entry)": "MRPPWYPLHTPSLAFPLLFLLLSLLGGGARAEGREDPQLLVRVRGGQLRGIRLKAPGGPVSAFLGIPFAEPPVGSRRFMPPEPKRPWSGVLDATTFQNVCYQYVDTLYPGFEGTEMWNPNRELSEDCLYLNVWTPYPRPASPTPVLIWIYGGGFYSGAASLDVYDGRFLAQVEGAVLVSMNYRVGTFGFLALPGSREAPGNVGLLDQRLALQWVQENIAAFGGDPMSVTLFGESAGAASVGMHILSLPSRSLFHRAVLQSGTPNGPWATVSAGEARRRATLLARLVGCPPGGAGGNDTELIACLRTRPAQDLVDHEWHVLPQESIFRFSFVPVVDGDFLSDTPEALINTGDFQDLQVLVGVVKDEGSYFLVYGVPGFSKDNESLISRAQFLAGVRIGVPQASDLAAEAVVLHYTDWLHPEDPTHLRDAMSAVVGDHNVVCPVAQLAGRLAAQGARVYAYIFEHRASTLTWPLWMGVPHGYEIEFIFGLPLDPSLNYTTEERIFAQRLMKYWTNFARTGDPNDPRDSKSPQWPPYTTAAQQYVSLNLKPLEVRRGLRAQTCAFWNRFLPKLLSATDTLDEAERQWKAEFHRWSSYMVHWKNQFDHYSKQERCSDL", "assay": "Inhibition of mouse brain AChE", "type": "tissue-based"}, "[7]": {"target": "Cholinesterase (Mus musculus, UniProt Q03311)", "sequence (Q03311 whole entry)": "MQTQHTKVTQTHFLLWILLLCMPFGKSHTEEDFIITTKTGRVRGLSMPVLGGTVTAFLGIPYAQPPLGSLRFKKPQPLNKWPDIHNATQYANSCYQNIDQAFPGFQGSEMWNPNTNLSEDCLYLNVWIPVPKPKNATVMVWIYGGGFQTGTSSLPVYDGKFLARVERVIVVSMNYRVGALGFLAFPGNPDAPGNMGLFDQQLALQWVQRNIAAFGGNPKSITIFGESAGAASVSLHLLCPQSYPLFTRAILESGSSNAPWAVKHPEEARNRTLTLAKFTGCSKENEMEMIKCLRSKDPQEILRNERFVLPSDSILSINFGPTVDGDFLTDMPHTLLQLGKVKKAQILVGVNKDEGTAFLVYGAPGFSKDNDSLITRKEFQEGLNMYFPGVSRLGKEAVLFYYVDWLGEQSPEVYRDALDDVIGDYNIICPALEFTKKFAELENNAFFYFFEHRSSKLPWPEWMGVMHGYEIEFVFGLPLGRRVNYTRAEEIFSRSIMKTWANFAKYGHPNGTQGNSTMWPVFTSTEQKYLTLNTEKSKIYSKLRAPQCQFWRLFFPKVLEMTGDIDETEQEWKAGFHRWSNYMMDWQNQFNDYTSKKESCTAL", "assay": "Inhibition of mouse serum BuChE", "type": "cell-free"}, "[8]": {"assay": "Antioxidant activity assessed as ABTS radical scavenging activity", "type": "functional"}, "[9]": {"target": "T1, Acetylcholinesterase", "description": "Binding affinity to electrical eel AChE assessed as inhibition constant incubated for 20 mins by absorbance based analysis"}, "[10]": {"target": "T2, Cholinesterase", "assay": "Binding affinity to horse serum BuChE using ATCh-iodide as substrate by ellman's method"}, "[11]": {"target": "T3, Acetylcholinesterase", "assay": "Inhibition of AChE (unknown origin)"}, "[12]": {"target": "T4, Cholinesterase", "remark": "listed apart in the source", "description": "Binding affinity to BuChE (unknown origin) assessed as inhibition constant"}}, "data": [{"smiles": "O=c1c2ccccc2n(CCCCCCn2cc(CO[C@@H]3O[C@H](CO)[C@@H](O)[C@H](O)[C@H]3O)nn2)c2ccccc12", "values": [{"measurement": "IC50", "setting": "[1]", "value": 38.2, "unit": "µM"}, {"measurement": "logP", "setting": "[2]", "value": 2.14}, {"measurement": "IC50", "setting": "[3]", "value": 29.3, "unit": "µM"}]}, {"smiles": "CC(=O)Nc1nc(NCc2ccccc2)c2ncn(C3O[C@H](CC(=O)NCc4ccccc4)[C@H](OC(C)=O)[C@H]3OC(C)=O)c2n1", "note": "(stereo not given in full)", "values": [{"measurement": "Ki", "setting": "[4]", "value": 50.5, "unit": "µM"}, {"measurement": "Ki", "setting": "[5]", "value": "> 100", "unit": "µM"}]}, {"smiles": "CC1(C)O[C@H]2O[C@H](CNCCCCCCCCCNc3c4c(nc5ccccc35)CCCC4)[C@H](O)[C@H]2O1", "values": [{"measurement": "IC50", "setting": "[6]", "value": 0.0051, "unit": "µM"}, {"measurement": "IC50", "setting": "[7]", "value": 0.025, "unit": "µM"}]}, {"smiles": "CC(=O)Nc1nc(Cl)c2ncn(C3O[C@H](CC(=O)NCc4ccccc4)[C@H](OC(C)=O)[C@H]3OC(C)=O)c2n1", "note": "(stereo not given in full)", "values": [{"measurement": "Ki", "setting": "[4]", "value": 14.8, "unit": "µM"}, {"measurement": "Ki", "setting": "[5]", "value": "> 100", "unit": "µM"}]}, {"smiles": "CCCCCCCC[Se]C[C@H]1OC(OC)[C@H](O)[C@H]1O", "note": "(stereo not given in full)", "values": [{"measurement": "IC50", "setting": "[8]", "value": 210, "unit": "µM"}]}, {"smiles": "CCCCCCCCCCCCNC(=O)[C@@H](OCc1ccccc1)[C@H]1O[C@@H](N=[N+]=[N-])[C@H](OC(C)=O)[C@H]1OCc1ccccc1", "values": [{"measurement": "Ki", "setting": "[9]", "value": 1.73, "unit": "µM"}]}, {"smiles": "CO[C@@H]1O[C@H](CNCCCCCCCCCCNc2c3c(nc4ccccc24)CCCC3)[C@H]2OC(C)(C)O[C@@H]12", "values": [{"measurement": "IC50", "setting": "[6]", "value": 0.065, "unit": "µM"}, {"measurement": "IC50", "setting": "[7]", "value": 0.064, "unit": "µM"}]}, {"smiles": "COc1ccc2c(c1)c(=O)c1ccccc1n2CCCCCCn1cc(CO[C@@H]2O[C@H](CO)[C@@H](O)[C@H](O)[C@H]2O)nn1", "values": [{"measurement": "IC50", "setting": "[1]", "value": 56.1, "unit": "µM"}, {"measurement": "logP", "setting": "[2]", "value": 2.14}, {"measurement": "IC50", "setting": "[3]", "value": 82.3, "unit": "µM"}]}, {"smiles": "CC1(C)O[C@H]2O[C@H](CNCCCCCCCCNc3c4c(nc5ccccc35)CCCC4)[C@H](O)[C@H]2O1", "values": [{"measurement": "IC50", "setting": "[6]", "value": 0.084, "unit": "µM"}, {"measurement": "IC50", "setting": "[7]", "value": 0.011, "unit": "µM"}]}, {"smiles": "O=c1c2ccccc2n(CCCCCCn2cc(CO[C@@H]3O[C@H](CO)[C@H](O)[C@H](O)[C@H]3O)nn2)c2ccccc12", "values": [{"measurement": "IC50", "setting": "[1]", "value": 44.7, "unit": "µM"}, {"measurement": "IC50", "setting": "[3]", "value": 38.3, "unit": "µM"}]}, {"smiles": "COc1ccc2c(c1)c(=O)c1ccccc1n2CCCCCCn1cc(CO[C@@H]2O[C@H](CO)[C@H](O)[C@H](O)[C@H]2O)nn1", "values": [{"measurement": "IC50", "setting": "[1]", "value": 44.7, "unit": "µM"}, {"measurement": "IC50", "setting": "[3]", "value": 65.6, "unit": "µM"}]}, {"smiles": "CC(=O)Nc1nc(Cl)c2c(ncn2[C@H]2O[C@H](COCc3ccccc3)[C@@H](OCc3ccccc3)[C@H](OCc3ccccc3)[C@@H]2OCc2ccccc2)n1", "values": [{"measurement": "Ki", "setting": "[5]", "value": 0.05, "unit": "µM"}]}, {"smiles": "O=c1c2ccccc2n(CCCCCCn2cc(CO[C@H]3C[C@H](O)[C@@H](CO)O3)nn2)c2ccccc12", "values": [{"measurement": "IC50", "setting": "[1]", "value": 167, "unit": "µM"}, {"measurement": "IC50", "setting": "[3]", "value": 42.8, "unit": "µM"}]}, {"smiles": "Cn1cnc2c1c(=O)n(C[C@H]1O[C@@H]3OC(C)(C)O[C@@H]3[C@H]1OCc1ccccc1)c(=O)n2C", "values": [{"measurement": "Ki", "setting": "[9]", "value": "> 100", "unit": "µM"}]}, {"smiles": "OC[C@H]1O[C@@H](OCCN2CN(Cc3ccccc3)c3ccccc32)[C@H](O)[C@@H](O)[C@H]1O", "values": [{"measurement": "Ki", "setting": "[10]", "value": 26, "unit": "µM"}]}, {"smiles": "CC(=O)Nc1nc(Cl)c2c(ncn2C2O[C@H](C(=O)O)[C@@H](OC(C)=O)[C@@H](OC(C)=O)[C@H]2OC(C)=O)n1", "note": "(stereo not given in full)", "values": [{"measurement": "Ki", "setting": "[4]", "value": 37.9, "unit": "µM"}, {"measurement": "Ki", "setting": "[5]", "value": "> 100", "unit": "µM"}]}, {"smiles": "CCCCCCCCCCCCNC(=O)[C@@H](OCc1ccccc1)[C@H]1OC(OC(C)=O)[C@H](OC(C)=O)[C@H]1OCc1ccccc1", "note": "(stereo not given in full)", "values": [{"measurement": "Ki", "setting": "[9]", "value": "> 100", "unit": "µM"}]}, {"smiles": "CO[C@@H]1O[C@H](CNCCCCCCCCCNc2c3c(nc4ccccc24)CCCC3)[C@H]2OC(C)(C)O[C@@H]12", "values": [{"measurement": "IC50", "setting": "[6]", "value": 0.09, "unit": "µM"}, {"measurement": "IC50", "setting": "[7]", "value": 0.037, "unit": "µM"}]}, {"smiles": "OC[C@H]1O[C@@H](OCCN2CN(Cc3ccccc3)c3ccccc32)[C@H](O)[C@@H](O)[C@@H]1O", "values": [{"measurement": "Ki", "setting": "[10]", "value": 52, "unit": "µM"}]}, {"smiles": "COc1cc([C@@H](O)[C@H](CO[C@@H]2O[C@H](CO)[C@@H](O)[C@H](O)[C@H]2O)Oc2ccc(CCCO)cc2OC)ccc1O", "values": [{"measurement": "IC50", "setting": "[11]", "value": 0.75, "unit": "µM"}]}, {"smiles": "CO[C@H]1O[C@H](Cn2c(=O)c3c(ncn3C)n(C)c2=O)[C@@H](OC(C)=O)[C@H](OC(C)=O)[C@H]1OC(C)=O", "values": [{"measurement": "Ki", "setting": "[9]", "value": 4.3, "unit": "µM"}, {"measurement": "Ki", "setting": "[12]", "value": 4, "unit": "µM"}]}, {"smiles": "CO[C@H]1O[C@H](Cn2cnc3c(Cl)nc(NC(C)=O)nc32)[C@@H](OCc2ccccc2)[C@H](OCc2ccccc2)[C@H]1OCc1ccccc1", "values": [{"measurement": "Ki", "setting": "[9]", "value": 7.1, "unit": "µM"}, {"measurement": "Ki", "setting": "[12]", "value": "< 100", "unit": "µM"}]}, {"smiles": "CC(=O)O[C@H]1C(NS(C)(=O)=O)O[C@H](Cn2c(=O)c3c(ncn3C)n(C)c2=O)[C@@H]1OCc1ccccc1", "note": "(stereo not given in full)", "values": [{"measurement": "Ki", "setting": "[9]", "value": 6.61, "unit": "µM"}]}, {"smiles": "COC1O[C@H](Cn2ccc(=O)[nH]c2=O)[C@@H](OCc2ccccc2)[C@H](OCc2ccccc2)[C@H]1OCc1ccccc1", "note": "(stereo not given in full)", "values": [{"measurement": "Ki", "setting": "[12]", "value": "< 100", "unit": "µM"}]}]}
